Experimental data reported in patent US11474106B2, “Methods for cytotoxic chemotherapy-based predictive assays” (ACCELERATED MEDICAL DIAGNOSTICS, INC., priority 2015, dated 2022).

Columns and labels:
[1] = test system: PDX Model BL0269; experiment: Drug-DNA adduct frequency in PDX tumor tissue by AMS; format: in vivo, NSG mice
From the text: (§1) Female NSG mice (5-8 weeks of age, body weight: 20 to 25 g) were obtained from Jackson Laboratories (CA, USA). All animals were kept under pathogen-free conditions and were allowed to acclimatize for at least 4 days prior to any experiments. PDX models bearing the indicated patient derived xenografts were created by subcutaneous injection at the flank of 1 mm^3 tumor tissue. To establish multiple PDXs to allow efficacy studies with multiple drugs, PDXs from passage 2-4 were minced into 1 mm^3 sections and injected subcutaneously into multiple mice. At least 3 mice were used for each treatment group. Tumors were allowed to grow to at about 100 mm^3 before being assessed for drug sensitivity or the induction of DNA adducts by the administration of a microdose or a therapeutic dose of labeled drug. To assess tumor response to chemotherapy, cisplatin was administered at 2 mg/kg IV every 7 days for a total of 3 cycles, or gemcitabine was administered at 150 mg/kg IP every 7 days for a total of 4 cycles. G/C combination chemotherapy consisted of the simultaneous administration of both drugs using the schema described above. Tumor growth was assessed by measuring palpable tumors with a caliper and calculating tumor volume. Drug-DNA adduct frequencies were measured in tumor tissue collected 24 hours after intravenous injection of labeled drug and stored at −80° C. until DNA isolation. DNA was isolated using a modified Wizard procedure (Promega), quantitated by spectrophotometry, and then stored frozen at −20° C. until AMS analysis. Ten micrograms of DNA per sample was converted to graphite and measured by AMS for 14C quantification as previously described.
(§2) NSG mice bearing the indicated PDX tumors were injected with a microdose of ^14C-labeled carboplatin (FIG. 22A) or ^14C-labeled gemcitabine (FIG. 22B). The microdose of ^14C-labeled carboplatin was 0.375 mg/kg carboplatin, 50,000 dpm/g. The microdose of ^14C-labeled gemcitabine was 0.092 mg/kg gemcitabine, 1000 dpm/g. The doses of each drug administered to the mice were chosen to target 1 μM in plasma concentration of carboplatin and 0.3 μM in plasma concentration of gemcitabine. These plasma concentrations represent 1% of the approximate peak plasma concentration during human chemotherapy. Animals were sacrificed after 24 h and drug-DNA adduct frequency was determined from collected tumor tissue by AMS measurements of ^14C in tumor DNA. Carboplatin DNA-adduct levels correlate with PDX model sensitivity to cisplatin at 24h after microdosing (FIG. 22A). […]
(§3) In this example we test whether gemcitabine/carboplatin (G/Carbo) combination therapy has an effect on the formation of drug-DNA adducts in this synergistic tumor model. […] Carboplatin-DNA monoadducts were measured in tumor tissue 24 h after dosing. […]

[2] = test system: PDX Model BL0645; experiment: as above; format: in vivo, NSG mice; conditions: 24 h
From the text: as §1, §2, §3

[3] = test system: PDX Model BL0293; experiment: as above; format: in vivo, NSG mice; conditions: microdose 0.092 mg/kg gemcitabine, 24 h
From the text: as §1, with “To assess tumor response to chemotherapy, cisplatin was administered at 2 mg/kg IV every 7 days for a total of 3 cycles, or gemcitabine was administered at 150 mg/kg IP every 7 days for a total of 4 cycles. G/C combination chemotherapy consisted of the simultaneous administration of both drugs using the schema described above.” left out, “described. […]” for “described.”

[4] = test system: PDX Model BL0440; experiment: as above; format: in vivo, NSG mice; conditions: microdose 0.092 mg/kg gemcitabine, 24 h
From the text: as §1, with “To assess tumor response to chemotherapy, cisplatin was administered at 2 mg/kg IV every 7 days for a total of 3 cycles, or gemcitabine was administered at 150 mg/kg IP every 7 days for a total of 4 cycles. G/C combination chemotherapy consisted of the simultaneous administration of both drugs using the schema described above.” left out, “described. […]” for “described.”

[5] = test system: A549; experiment: MTT assay (IC50); format: cell-based, human
Experimental: Six non-small cell lung cancer (NSCLC) cell lines were treated in culture with [^14C]carboplatin. Carboplatin-DNA monoadduct levels over time were determined by measuring ^14C content in genomic DNA with accelerator mass spectrometry (AMS). Cellular sensitivity to carboplatin and cisplatin was analyzed by the MTT assay (Henderson et al., International Journal of Cancer 2011).
Human NSCLC cell lines H23, H460, H727, HCC827, H1975, and A549 were purchased from ATCC and were cultured with the recommended medium. The MTT assay was performed as previously reported to determine the drug concentration required to inhibit cell growth by 50% (IC50) of cisplatin and carboplatin. [^14C]Carboplatin (at 53 mCi/mmol) was mixed with unlabeled carboplatin to achieve the specific activities required for microdoses and therapeutic doses. Table 1 lists the six NSCLC cell lines and summarizes their IC50 characteristics, induced carboplatin-DNA monoadducts when treated with [^14C]carboplatin, and p and r^2 values for correlation analysis to the IC50 concentrations.

[6] = test system: 5637; experiment: MTT assay (IC50); format: cell-based, human
Experimental: Thus, we measured the IC50 of the six NSCLC cell lines from Example 2 to both cisplatin and carboplatin to determine if the sensitivity of these six NSCLC cell lines to the two drugs are correlated.
The cell lines were purchased from the American Type Culture Collection (ATCC, Manassas, Va.) and cultured in the recommended media.
Drug-DNA adduct formation and repair was measured by accelerator mass spectrometry.
These two cell lines were also cultured with a range of concentrations of cisplatin, carboplatin, gemcitabine, doxorubicin, methotrexate and vinblastine for 72 hours to determine IC50 for these other drugs (FIG. 16C). These drugs were chosen because of their frequent use in the treatment of bladder cancer.

| SMILES | gemcitabine-DNA adduct levels ([1]; BL0269 control experiment (FIG. 23F), microdose gemcitabine 0.092 mg/kg, alone or with carboplatin 0.375 mg/kg) | gemcitabine adduct levels ([1]; BL0269 tumor DNA, microdose 0.092 mg/kg gemcitabine, 24 h (FIG. 22B)) | gemcitabine adduct level ([2]; BL0645, therapeutic dose gemcitabine 9.2 mg/kg, alone or with carboplatin 37.5 mg/kg) | gemcitabine adduct levels ([2]; BL0645 tumor DNA, microdose 0.092 mg/kg gemcitabine, alone or with carboplatin 0.375 mg/kg) | gemcitabine adduct levels [3] | gemcitabine adduct levels [4] | IC50 [5] [µM] | IC50 ([6]; 5637 (Table 2)) [µM] | IC50 ([6]; 5637 (parental, Example 11), MTT, 72 hours) [µM] |
| --- | --- | --- | --- | --- | --- | --- | --- | --- | --- |
| Nc1ccn([C@@H]2O[C@H](CO)[C@@H](O)C2(F)F)[14c](=O)n1 [[^14C]gemcitabine, 2′-Deoxy-2′,2′-difluorocytidine, [cytosine-2-^14C]-] | 2.44±0.492 adducts per 10^8 nucleotides | 3.17±0.278 | 169.2±9.129 adducts per 10^8 nucleotides | 2.44±0.880 adducts per 10^8 nucleotides | 10.0±5.92 | 13.1±10.2 | – | – | – |
| N.N.[Cl][Pt][Cl] [cisplatin] | – | – | – | – | – | – | 26.3 ± 9.26 | 2.43 ± 0.45 | 0.59 |
